Article PMC3399817 (PLoS ONE, 2012)

Experiments:
Assay in all cases: KINOMEscan
Type in all cases: binding
GRK4 = molecular target: T1, GRK4 (Homo sapiens, UniProt P32298); details: GRK4, 1 uM
T1 construct: purchased Ambit KINOMEscan (DiscoverX)
Outline: (§1)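 First-pass selectivity screen: compound at 1 μM, endpoint is whether substrate binding to each kinase is suppressed.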

PDGFRA = molecular target: T2, PDGFRA (Homo sapiens, UniProt P16234); details: 1 uM
T2 construct: purchased Ambit KINOMEscan (DiscoverX)
Outline: as §1

TRKB = molecular target: T3, TRKB (Homo sapiens, UniProt Q16620); details: 1 uM
T3 construct: purchased Ambit KINOMEscan (DiscoverX)
T3 sequence (Q16620 32-822): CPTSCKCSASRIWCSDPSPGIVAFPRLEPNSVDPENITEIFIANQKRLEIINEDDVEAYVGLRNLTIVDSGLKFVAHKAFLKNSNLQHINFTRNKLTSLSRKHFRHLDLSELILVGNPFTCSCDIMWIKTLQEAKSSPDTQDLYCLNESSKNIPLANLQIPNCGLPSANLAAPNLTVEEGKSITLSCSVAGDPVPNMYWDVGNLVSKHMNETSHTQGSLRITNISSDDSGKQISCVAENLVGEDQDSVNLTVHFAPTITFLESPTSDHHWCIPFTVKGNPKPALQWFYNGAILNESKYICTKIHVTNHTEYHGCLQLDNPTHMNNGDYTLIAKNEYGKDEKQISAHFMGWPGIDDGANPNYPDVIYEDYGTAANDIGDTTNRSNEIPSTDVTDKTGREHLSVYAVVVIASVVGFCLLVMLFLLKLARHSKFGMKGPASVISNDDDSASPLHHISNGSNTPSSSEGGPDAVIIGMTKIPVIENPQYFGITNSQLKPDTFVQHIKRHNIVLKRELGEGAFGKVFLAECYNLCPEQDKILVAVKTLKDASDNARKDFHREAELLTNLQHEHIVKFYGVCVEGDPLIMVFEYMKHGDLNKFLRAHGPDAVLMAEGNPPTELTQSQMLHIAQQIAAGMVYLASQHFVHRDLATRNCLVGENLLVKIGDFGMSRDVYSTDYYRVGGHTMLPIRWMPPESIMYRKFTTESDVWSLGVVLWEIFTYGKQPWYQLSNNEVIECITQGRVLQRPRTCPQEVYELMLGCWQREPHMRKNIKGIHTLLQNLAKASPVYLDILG
Outline: as §1

NIM1 = molecular target: T4, NIM1 (Homo sapiens, UniProt Q8IY84); details: NIM1, 1 uM
T4 construct: purchased Ambit KINOMEscan (DiscoverX)
T4 sequence (Q8IY84 whole entry): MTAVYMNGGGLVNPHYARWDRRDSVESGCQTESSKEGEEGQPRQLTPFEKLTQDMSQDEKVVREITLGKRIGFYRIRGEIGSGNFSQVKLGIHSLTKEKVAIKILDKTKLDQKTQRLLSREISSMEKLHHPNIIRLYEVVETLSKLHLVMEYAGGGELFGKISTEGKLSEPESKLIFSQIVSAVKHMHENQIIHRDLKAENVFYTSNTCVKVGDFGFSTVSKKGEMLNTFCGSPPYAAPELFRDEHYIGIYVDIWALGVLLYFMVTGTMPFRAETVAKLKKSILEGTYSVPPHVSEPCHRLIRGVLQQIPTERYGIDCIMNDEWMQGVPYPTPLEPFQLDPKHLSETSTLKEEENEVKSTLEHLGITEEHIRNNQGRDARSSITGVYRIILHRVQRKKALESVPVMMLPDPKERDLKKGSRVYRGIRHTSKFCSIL
Outline: as §1

RIPK2 = molecular target: T5, RIPK2 (Homo sapiens, UniProt O43353); details: RIPK2, 1 uM
T5 construct: purchased Ambit KINOMEscan (DiscoverX)
Outline: as §1

KIT(L576P) = molecular target: T6, KIT(L576P) (Homo sapiens, UniProt P10721, L576P); details: 1 uM
T6 construct: purchased Ambit KINOMEscan (DiscoverX)
Outline: as §1

TAO1 = molecular target: T7, TAO1 (Homo sapiens, UniProt Q9UL54); details: TAO1, 1 uM
T7 construct: purchased Ambit KINOMEscan (DiscoverX)
Outline: as §1

PKAC-beta = molecular target: T8, PKAC-beta (Homo sapiens, UniProt P22694); details: 1 uM
T8 construct: purchased Ambit KINOMEscan (DiscoverX)
Outline: as §1

PRKCQ = molecular target: T9, PRKCQ (Homo sapiens, UniProt Q04759); details: 1 uM
T9 construct: purchased Ambit KINOMEscan (DiscoverX)
Outline: as §1

RAF1 = molecular target: T10, RAF1 (Homo sapiens, UniProt P04049); details: RAF1, 1 uM
T10 construct: purchased Ambit KINOMEscan (DiscoverX)
T10 sequence (P04049 whole entry): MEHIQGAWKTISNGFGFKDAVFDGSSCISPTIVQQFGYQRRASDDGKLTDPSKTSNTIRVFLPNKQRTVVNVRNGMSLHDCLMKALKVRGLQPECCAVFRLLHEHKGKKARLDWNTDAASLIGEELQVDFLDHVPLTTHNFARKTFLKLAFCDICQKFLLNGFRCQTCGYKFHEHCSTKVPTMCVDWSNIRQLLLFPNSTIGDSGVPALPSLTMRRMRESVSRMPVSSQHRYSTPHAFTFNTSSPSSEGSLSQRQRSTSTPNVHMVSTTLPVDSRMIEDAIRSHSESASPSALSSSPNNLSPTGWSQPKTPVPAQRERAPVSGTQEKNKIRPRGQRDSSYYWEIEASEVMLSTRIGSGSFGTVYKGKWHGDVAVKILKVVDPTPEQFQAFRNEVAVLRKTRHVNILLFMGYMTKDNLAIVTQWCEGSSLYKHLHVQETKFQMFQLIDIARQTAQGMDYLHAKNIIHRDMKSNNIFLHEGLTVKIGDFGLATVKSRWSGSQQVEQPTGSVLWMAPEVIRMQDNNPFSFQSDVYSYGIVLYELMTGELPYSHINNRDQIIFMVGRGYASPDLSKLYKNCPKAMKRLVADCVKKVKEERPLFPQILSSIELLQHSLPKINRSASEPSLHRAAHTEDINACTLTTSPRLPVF
Outline: as §1

SRMS = molecular target: T11, SRMS (Homo sapiens, UniProt Q9H3Y6); details: 1 uM
T11 construct: purchased Ambit KINOMEscan (DiscoverX)
Outline: as §1

MAPKAPK5 = molecular target: T12, MAPKAPK5 (Homo sapiens, UniProt Q8IW41); details: MAPKAPK5, 1 uM
T12 construct: purchased Ambit KINOMEscan (DiscoverX)
Outline: as §1

TIE2 = molecular target: T13, TIE2 (Homo sapiens, UniProt Q02763); details: TIE2, 1 uM
T13 construct: purchased Ambit KINOMEscan (DiscoverX)
T13 sequence (Q02763 23-1124): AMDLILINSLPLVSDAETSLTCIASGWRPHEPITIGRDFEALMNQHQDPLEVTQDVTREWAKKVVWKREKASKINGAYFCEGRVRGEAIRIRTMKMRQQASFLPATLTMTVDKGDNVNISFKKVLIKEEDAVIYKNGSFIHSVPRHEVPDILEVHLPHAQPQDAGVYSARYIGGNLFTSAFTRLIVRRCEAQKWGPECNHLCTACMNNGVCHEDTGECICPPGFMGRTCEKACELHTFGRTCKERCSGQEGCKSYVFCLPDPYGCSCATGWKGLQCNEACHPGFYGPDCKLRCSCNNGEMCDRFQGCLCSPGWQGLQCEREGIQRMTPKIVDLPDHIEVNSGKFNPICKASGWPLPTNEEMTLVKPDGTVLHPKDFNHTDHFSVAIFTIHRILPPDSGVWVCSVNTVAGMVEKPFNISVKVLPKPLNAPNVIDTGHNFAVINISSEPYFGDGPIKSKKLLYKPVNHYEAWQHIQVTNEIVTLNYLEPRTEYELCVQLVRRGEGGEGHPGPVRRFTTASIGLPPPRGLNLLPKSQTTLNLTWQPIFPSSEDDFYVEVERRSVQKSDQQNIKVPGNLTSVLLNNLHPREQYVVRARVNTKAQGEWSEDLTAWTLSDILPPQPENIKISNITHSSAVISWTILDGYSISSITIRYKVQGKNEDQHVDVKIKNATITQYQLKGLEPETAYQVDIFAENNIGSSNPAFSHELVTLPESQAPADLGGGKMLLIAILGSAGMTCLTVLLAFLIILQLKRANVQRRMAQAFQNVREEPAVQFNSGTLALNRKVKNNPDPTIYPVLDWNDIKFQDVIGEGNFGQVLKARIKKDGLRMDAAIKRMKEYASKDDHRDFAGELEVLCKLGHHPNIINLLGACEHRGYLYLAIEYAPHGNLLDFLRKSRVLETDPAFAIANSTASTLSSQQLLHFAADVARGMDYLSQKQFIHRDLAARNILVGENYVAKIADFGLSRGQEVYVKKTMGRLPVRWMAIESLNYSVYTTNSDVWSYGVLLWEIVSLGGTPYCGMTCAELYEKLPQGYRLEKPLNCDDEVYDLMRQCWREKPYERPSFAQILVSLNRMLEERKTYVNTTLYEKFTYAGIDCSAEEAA
Outline: as §1

NEK2 = molecular target: T14, NEK2 (Homo sapiens, UniProt P51955); details: NEK2, 1 uM
T14 construct: purchased Ambit KINOMEscan (DiscoverX)
T14 sequence (P51955 whole entry): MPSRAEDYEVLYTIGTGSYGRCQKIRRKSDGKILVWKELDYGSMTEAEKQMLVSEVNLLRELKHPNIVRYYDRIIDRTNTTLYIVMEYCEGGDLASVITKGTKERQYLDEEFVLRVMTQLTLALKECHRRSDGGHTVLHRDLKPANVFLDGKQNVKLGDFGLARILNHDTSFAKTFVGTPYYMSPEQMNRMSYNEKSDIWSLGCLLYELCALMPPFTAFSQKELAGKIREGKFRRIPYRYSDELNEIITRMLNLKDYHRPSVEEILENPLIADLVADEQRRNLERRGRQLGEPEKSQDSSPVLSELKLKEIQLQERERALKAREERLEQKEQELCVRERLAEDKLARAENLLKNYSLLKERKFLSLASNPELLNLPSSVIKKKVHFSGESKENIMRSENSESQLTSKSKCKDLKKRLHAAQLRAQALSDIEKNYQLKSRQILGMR
Outline: as §1

PIP5K2B = molecular target: T15, PIP5K2B (Homo sapiens, UniProt P78356); details: 1 uM
T15 construct: purchased Ambit KINOMEscan (DiscoverX)
Outline: as §1

MEK3 = molecular target: T16, MEK3 (Homo sapiens, UniProt P46734); details: MEK3, 1 uM
T16 construct: purchased Ambit KINOMEscan (DiscoverX)
Outline: as §1

[1] = molecular target: T17, RPS6KA4(Kin.Dom.2-C-terminal) (Homo sapiens, UniProt O75676); details: 1 uM
T17 construct: RPS6KA4(Kin.Dom.2-C-terminal); purchased Ambit KINOMEscan (DiscoverX)
Outline: as §1

PCTK3 = molecular target: T18, PCTK3 (Homo sapiens, UniProt Q07002); details: PCTK3, 1 uM
T18 construct: purchased Ambit KINOMEscan (DiscoverX)
Outline: as §1

DAPK2 = molecular target: T19, DAPK2 (Homo sapiens, UniProt Q9UIK4); details: DAPK2, 1 uM
T19 construct: purchased Ambit KINOMEscan (DiscoverX)
Outline: as §1

SgK110 = molecular target: T20, SgK110 (Homo sapiens, UniProt P0C264); details: SgK110, 1 uM
T20 construct: purchased Ambit KINOMEscan (DiscoverX)
T20 sequence (P0C264 whole entry): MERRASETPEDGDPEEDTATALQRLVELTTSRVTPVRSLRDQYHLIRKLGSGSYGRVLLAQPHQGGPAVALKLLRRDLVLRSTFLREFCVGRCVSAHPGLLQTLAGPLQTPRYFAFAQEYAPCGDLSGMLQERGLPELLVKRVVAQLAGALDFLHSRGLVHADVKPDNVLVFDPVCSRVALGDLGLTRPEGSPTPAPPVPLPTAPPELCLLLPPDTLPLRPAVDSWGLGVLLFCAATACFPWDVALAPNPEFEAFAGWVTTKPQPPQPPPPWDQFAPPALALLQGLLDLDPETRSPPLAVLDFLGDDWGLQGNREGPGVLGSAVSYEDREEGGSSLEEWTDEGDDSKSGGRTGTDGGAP
Outline: as §1

IKK-epsilon = molecular target: T21, IKK-epsilon (Homo sapiens, UniProt Q14164); details: 1 uM
T21 construct: purchased Ambit KINOMEscan (DiscoverX)
Outline: as §1

EPHA2 = molecular target: T22, EPHA2 (Homo sapiens, UniProt P29317); details: EPHA2, 1 uM
T22 construct: purchased Ambit KINOMEscan (DiscoverX)
Outline: as §1

ERN1 = molecular target: T23, ERN1 (Homo sapiens, UniProt O75460); details: ERN1, 1 uM
T23 construct: purchased Ambit KINOMEscan (DiscoverX)
Outline: as §1

CLK3 = molecular target: T24, CLK3 (Homo sapiens, UniProt P49761); details: CLK3, 1 uM
T24 construct: purchased Ambit KINOMEscan (DiscoverX)
Outline: as §1

CSNK1G2 = molecular target: T25, CSNK1G2 (Homo sapiens, UniProt P78368); details: CSNK1G2, 1 uM
T25 construct: purchased Ambit KINOMEscan (DiscoverX)
Outline: as §1

NEK6 = molecular target: T26, NEK6 (Homo sapiens, UniProt Q9HC98); details: NEK6, 1 uM
T26 construct: purchased Ambit KINOMEscan (DiscoverX)
Outline: as §1

KIT(V559D,V654A) = molecular target: T27, KIT(V559D,V654A) (Homo sapiens, UniProt P10721, V559D/V654A); details: 1 uM
T27 construct: purchased Ambit KINOMEscan (DiscoverX)
Outline: as §1

NDR2 = molecular target: T28, NDR2 (Homo sapiens, UniProt Q9Y2H1); details: NDR2, 1 uM
T28 construct: purchased Ambit KINOMEscan (DiscoverX)
Outline: as §1

MINK = molecular target: T29, MINK (Homo sapiens, UniProt Q8N4C8); details: 1 uM
T29 construct: purchased Ambit KINOMEscan (DiscoverX)
Outline: as §1

NEK5 = molecular target: T30, NEK5 (Homo sapiens, UniProt Q6P3R8); details: NEK5, 1 uM
T30 construct: purchased Ambit KINOMEscan (DiscoverX)
Outline: as §1

FLT3(ITD) = details: 1 uM
Outline: as §1

CSNK2A2 = molecular target: T31, CSNK2A2 (Homo sapiens, UniProt P19784); details: CSNK2A2, 1 uM
T31 construct: purchased Ambit KINOMEscan (DiscoverX)
T31 sequence (P19784 whole entry): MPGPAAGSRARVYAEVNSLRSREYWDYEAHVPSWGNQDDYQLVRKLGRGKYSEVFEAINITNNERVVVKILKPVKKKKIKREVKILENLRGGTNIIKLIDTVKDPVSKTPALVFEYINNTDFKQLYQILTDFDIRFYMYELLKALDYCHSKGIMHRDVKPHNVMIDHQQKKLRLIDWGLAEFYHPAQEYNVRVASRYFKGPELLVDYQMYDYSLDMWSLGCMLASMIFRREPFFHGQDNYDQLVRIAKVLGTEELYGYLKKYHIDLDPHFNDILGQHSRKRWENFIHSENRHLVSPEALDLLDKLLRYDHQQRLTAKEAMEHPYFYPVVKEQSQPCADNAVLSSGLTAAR
Outline: as §1

EGFR(L747-T751del,Sins) = molecular target: T32, EGFR(L747-T751del,Sins) (Homo sapiens, UniProt P00533, DEL747-750/T751S); details: 1 uM
T32 construct: purchased Ambit KINOMEscan (DiscoverX)
T32 sequence (P00533 with tags, fused parts or gaps DEL747-750/T751S limits assumed): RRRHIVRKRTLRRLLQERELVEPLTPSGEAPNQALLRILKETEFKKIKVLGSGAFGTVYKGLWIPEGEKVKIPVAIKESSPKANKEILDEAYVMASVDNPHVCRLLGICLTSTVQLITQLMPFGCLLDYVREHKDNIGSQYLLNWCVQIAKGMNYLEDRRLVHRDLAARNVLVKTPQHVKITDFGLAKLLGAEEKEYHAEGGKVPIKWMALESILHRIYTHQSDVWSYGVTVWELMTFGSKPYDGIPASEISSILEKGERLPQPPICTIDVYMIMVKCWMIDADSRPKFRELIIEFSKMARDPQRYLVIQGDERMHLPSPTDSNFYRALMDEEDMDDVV
Outline: as §1

TRKC = molecular target: T33, TRKC (Homo sapiens, UniProt Q16288); details: 1 uM
T33 construct: purchased Ambit KINOMEscan (DiscoverX)
Outline: as §1

GSK3A = molecular target: T34, GSK3A (Homo sapiens, UniProt P49840); details: for % binding compared to no inhibitor control: GSK3A, 1 uM
T34 construct: purchased Ambit KINOMEscan (DiscoverX)
T34 sequence (P49840 whole entry): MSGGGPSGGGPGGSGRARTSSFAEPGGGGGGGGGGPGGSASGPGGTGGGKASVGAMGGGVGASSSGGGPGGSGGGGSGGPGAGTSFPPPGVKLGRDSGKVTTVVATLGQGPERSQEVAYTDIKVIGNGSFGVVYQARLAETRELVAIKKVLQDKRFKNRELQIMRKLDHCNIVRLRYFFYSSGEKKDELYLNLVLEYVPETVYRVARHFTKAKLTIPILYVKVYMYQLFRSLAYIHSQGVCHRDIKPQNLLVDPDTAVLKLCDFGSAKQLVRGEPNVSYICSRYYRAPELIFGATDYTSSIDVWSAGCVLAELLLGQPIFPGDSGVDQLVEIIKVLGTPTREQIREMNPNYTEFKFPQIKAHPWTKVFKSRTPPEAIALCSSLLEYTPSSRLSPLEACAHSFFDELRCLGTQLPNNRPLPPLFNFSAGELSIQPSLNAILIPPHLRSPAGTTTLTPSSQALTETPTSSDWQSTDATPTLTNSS
Outline: as §1

FRK = molecular target: T35, FRK (Homo sapiens, UniProt P42685); details: 1 uM
T35 construct: purchased Ambit KINOMEscan (DiscoverX)
Outline: as §1

MEK1 = molecular target: T36, MEK1 (Homo sapiens, UniProt Q02750); details: MEK1, 1 uM
T36 construct: purchased Ambit KINOMEscan (DiscoverX)
Outline: as §1

ULK1 = molecular target: T37, ULK1 (Homo sapiens, UniProt O75385); details: ULK1, 1 uM
T37 construct: purchased Ambit KINOMEscan (DiscoverX)
Outline: as §1

MRCKA = molecular target: T38, MRCKA (Homo sapiens, UniProt Q5VT25); details: 1 uM
T38 construct: purchased Ambit KINOMEscan (DiscoverX)
Outline: as §1

Compound | % binding compared to no inhibitor control (GRK4) | % binding compared to no inhibitor control (PDGFRA) | % binding compared to no inhibitor control (TRKB) | % binding compared to no inhibitor control (NIM1) | % binding compared to no inhibitor control (RIPK2) | % binding compared to no inhibitor control (KIT(L576P)) | % binding compared to no inhibitor control (TAO1) | % binding compared to no inhibitor control (PKAC-beta) | % binding compared to no inhibitor control (PRKCQ) | % binding compared to no inhibitor control (RAF1) | % binding compared to no inhibitor control (SRMS) | % binding compared to no inhibitor control (MAPKAPK5) | % binding compared to no inhibitor control (TIE2) | % binding compared to no inhibitor control (NEK2) | % binding compared to no inhibitor control (PIP5K2B) | % binding compared to no inhibitor control (MEK3) | % binding compared to no inhibitor control [1] | % binding compared to no inhibitor control (PCTK3) | % binding compared to no inhibitor control (DAPK2) | % binding compared to no inhibitor control (SgK110) | also measured
COc1ccc(-c2cc3nccn3c(Nc3ncccc3C(N)=O)n2)cc1OC.Cl.Cl [BAY61-3606, 2-[7-(3,4-dimethoxyphenyl)-imidazo [1,2-c]pyrimidin-5-ylamino] nicotinamide dihydrochloride, reference compound] | 73% | 67% | 83% | 88% | 70% | 0.4% | 100% | 76% | 88% | 81% | 65% | 100% | 100% | 77% | 100% | 21% | 60% | 92% | 66% | 100% | % binding compared to no inhibitor control (IKK-epsilon): 33%; % binding compared to no inhibitor control (EPHA2): 100%; % binding compared to no inhibitor control (ERN1): 72%; % binding compared to no inhibitor control (CLK3): 100%; % binding compared to no inhibitor control (CSNK1G2): 100%; % binding compared to no inhibitor control (NEK6): 63%; % binding compared to no inhibitor control (KIT(V559D,V654A)): 71%; % binding compared to no inhibitor control (NDR2): 68%; % binding compared to no inhibitor control (MINK): 62%; % binding compared to no inhibitor control (NEK5): 86%; % binding compared to no inhibitor control (FLT3(ITD)): 2.1%; % binding compared to no inhibitor control (CSNK2A2): 54%; % binding compared to no inhibitor control (EGFR(L747-T751del,Sins)): 80%; % binding compared to no inhibitor control (TRKC): 92%; % binding compared to no inhibitor control (GSK3A): 17%; % inhibition ATP binding (GSK3A; GSK3α, KINOMEscan, 1 μM): 83%; % binding compared to no inhibitor control (FRK): 100%; % binding compared to no inhibitor control (MEK1): 100%; % binding compared to no inhibitor control (ULK1): 97%; % binding compared to no inhibitor control (MRCKA): 83%
COc1ccccc1Nc1nc(-c2ccc(OC)c(OC)c2)cc2nccn12 [BAY derivative 6] | 100% | 100% | 74% | 100% | 100% | 38% | 96% | 95% | 100% | 100% | 97% | 100% | 100% | 88% | 100% | 94% | 86% | 100% | 100% | 100% | % binding compared to no inhibitor control (IKK-epsilon): 96%; % binding compared to no inhibitor control (EPHA2): 89%; % binding compared to no inhibitor control (ERN1): 100%; % binding compared to no inhibitor control (CLK3): 100%; % binding compared to no inhibitor control (CSNK1G2): 100%; % binding compared to no inhibitor control (NEK6): 100%; % binding compared to no inhibitor control (KIT(V559D,V654A)): 100%; % binding compared to no inhibitor control (NDR2): 93%; % binding compared to no inhibitor control (MINK): 100%; % binding compared to no inhibitor control (NEK5): 72%; % binding compared to no inhibitor control (FLT3(ITD)): 82%; % binding compared to no inhibitor control (CSNK2A2): 100%; % binding compared to no inhibitor control (EGFR(L747-T751del,Sins)): 89%; % binding compared to no inhibitor control (TRKC): 98%; % binding compared to no inhibitor control (GSK3A): 100%; % binding compared to no inhibitor control (FRK): 84%; % binding compared to no inhibitor control (MEK1): 100%; % binding compared to no inhibitor control (ULK1): 100%; % binding compared to no inhibitor control (MRCKA): 79%
